Assay results as given in patent US20040009464A1, “Methods for identifying compounds for inhibition of neoplastic lesions, and pharmacetical compositions containing such compounds” (priority 1998, published 2004).

Assays:
[1] = tested on: premalignant lesions in mouse mammary gland organ culture; test: Mammary gland organ culture model; type: cell-based; details: FIG. 17
Description: Test compounds identified by the above methods can be tested for antineoplastic activity by their ability to inhibit the incidence of pre-neoplastic lesions in a mammary gland organ culture system. This mouse mammary gland organ culture technique has been successfully used by other investigators to study the effects of known antineoplastic agents such as certain NSAIDs, retinoids, tamoxifen, selenium, and certain natural products, and is useful for validation of the screening method of the present invention.
For example, female BALB/c mice can be treated with a combination of estradiol and progesterone daily, in order to prime the glands to be responsive to hormones in vitro. The animals are sacrificed, and thoracic mammary glands are excised aseptically and incubated for ten days in growth media supplemented with insulin, prolactin, hydrocortisone, and aldosterone. DMBA (7,12-dimethylbenz(a)anthracene) is added to medium to induce the formation of premalignant lesions Fully developed glands are then deprived of prolactin, hydrocortisone, and aldosterone, resulting in the regression of the glands but not the pre-malignant lesions.
The test compound is dissolved in DMSO and added to the culture media for the duration of the culture period. At the end of the culture period, the glands are fixed in 10% formalin, stained with alum camine, and mounted on glass slides. The incidence of forming mammary lesions is the ratio of the glands with mammary lesions to […]. The incidence of mammary lesions in test compound treated glands is compared with that of the untreated glands.
The extent of the area occupied by the mammary lesions can be quantitated by projecting an image of the gland onto a digitation pad. The area covered by the gland is traced on the pad and considered as 100% of the area. The space covered by each of the non-regressed structures is also outlined on the digitization pad and quantitated by the computer.
Mammary gland organ culture experiment were performed as previously described (Mehta and Moon, Cancer Research, 46: 5832-5835, 1986). […]

[2] = tested on: PKG in HCT116 colon cancer cells; test: PKG activity assay on lysates of drug-treated HCT116 cells; type: cell-based
Description: To test the effect of cGMP-specific PDE inhibition on neoplasia containing the β-catenin mutation, HCT116 colon cancer celis were employed. HCT116 is known to contain the β-catenin mutation, but is known not to contain the APC mutation.
The same procedure is used to grow the HCT116 cells as is used in the SW480 procedure described above. In this experiment, only exisulind and controls were used.

[3] = tested on: PKG in SW480 colon cancer cells; test: PKG activity assay on lysates of drug-treated SW480 cells; type: cell-based, human; details: SW480, 48 hrs, with and without added cGMP
Description: That sequence is known and described in the literature below. […] One way to bind the PDE5 sequences to a solid phase is to express those sequences as a fusion protein of the PDE5 sequence and one member of an amino acid binding pair, and chemically link the other member of that amino acid binding pair to a solid phase (e.g., beads). One binding pair that can be used is glutathione S-transferase (“GST”) and glutathione (“GSH”), with the GST being expressed as a fusion protein with the PDE5 sequence described above, and the GSH bound covalently to the solid phase. In this fashion, the PDE5 sequence/GST fusion protein can be bound to a solid phase simply by passing a solution containing the fusion protein over the solid phase, as described below.
To assay a liquid sample believed to contain PKG using the PDE5-bound solid phase described above, the sample and the solid phase are mixed with phosphorylation buffer containing ^32P-γ-ATP. The solution is incubated for 30 minutes at 30° C. to allow for phosphorylation of the PDE5 sequence by PKG to occur, if PKG is present. […]
For each control or drug cell lysate sample to be evaluated, the reaction is started by adding phosphorylation buffer containing 10 μCi ^32P-γ-ATP solution (200 μM ATP, 4.5 mM MgCl; 5 mM KH2PO4; 5 mM K2HPO4;) to each mixture. […]

[4] = target: T1, cGMP binding sites of GST-cGB-PDE5 fusion protein (Homo sapiens, UniProt O76074); test: cGMP binding assay with GST-cGB-PDE5 fusion protein; details: FIG. 24
T1 construct: made in house; host or cells: E. coli BL21 (DE3)
T1 sequence (O76074 46-539 limits assumed): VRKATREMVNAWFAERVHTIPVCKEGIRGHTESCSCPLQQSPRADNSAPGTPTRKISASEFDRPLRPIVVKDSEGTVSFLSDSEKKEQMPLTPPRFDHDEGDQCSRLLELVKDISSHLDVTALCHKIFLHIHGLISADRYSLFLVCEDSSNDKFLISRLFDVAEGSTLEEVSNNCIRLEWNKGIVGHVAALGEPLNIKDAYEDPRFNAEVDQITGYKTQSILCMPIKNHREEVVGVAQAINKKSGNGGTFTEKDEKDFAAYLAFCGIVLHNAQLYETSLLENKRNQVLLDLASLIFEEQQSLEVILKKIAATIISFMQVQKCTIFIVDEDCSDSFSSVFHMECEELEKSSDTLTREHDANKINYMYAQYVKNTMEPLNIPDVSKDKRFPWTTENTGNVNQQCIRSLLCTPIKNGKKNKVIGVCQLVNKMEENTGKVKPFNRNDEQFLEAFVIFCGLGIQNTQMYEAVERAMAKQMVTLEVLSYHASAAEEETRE

Structure (SMILES): CC1=C(CC(=O)O)c2cc(F)ccc2/C1=C\c1ccc(S(C)(=O)=O)cc1 [Exisulind, 5-fluoro-2-methyl-1-(p-methylsulfonylbenzylidene)-3-indenylacetic acid]
- inhibition of premalignant lesions in mammary gland organ culture [1]: effectively inhibit the formation of premalignant lesions
- PKG activity relative to control [2]: PKG that was phosphorylated to a greater extent than the corresponding controls
- PKG activity relative to control [3]: causes PKG activity to increase in a dose-dependent manner
- competition with cGMP (2 μM) in binding of GST-cGB-PDE5 [4]: None of the PDE5 inhibitors showed any competition
